Patent US7375215B2, “Compounds for PDT” (Bioscience Technology Investment Holdings Limited, priority 2000, dated 2008)

Assays:
Balb/c mice = assay: Cutaneous photosensitivity (ear thickness after xenon light irradiation); format: in vivo; details: 0.88 μmol kg^−1, 40 Joules per cm^2 xenon light
Method: Cutaneous photosensitivity was determined in adult female Balb/c mice, held under standard conditions and allowed access to food and water ad libitum. […] Each mouse was weighed immediately before injection and the injected volume adjusted to give the correct dose.
At 24 or 72 hours after photosensitiser injection one ear of each mouse was irradiated with full-spectrum xenon light from a 1 KW clinical photo-irradiator (Model UV-90, Applied Photophysics, London). The light was delivered to the ear using a 7 mm diameter light guide (Serial SU3) placed lightly against the ear. The light dose given was 40 Joules per cm^2, which was achieved by exposing the ear for 63 seconds to 245 mW of light from the light guide having a contact area of 0.384 cm^2. The light guide filtered infra-red and ultra-violet light, so as to minimise heating of the ear and damage resulting from ultra-violet light irradiation.
Animals treated with light at the 24 or 72 hour drug-light intervals were killed at 48 or 24 hours respectively after irradiation of the ears. The oedema of the irradiated and control ears was assessed by measuring ear thickness. The thickness of the ear was measured at three sites on the upper third of the ear using a fixed-force micrometer with a vernier-interpolated resolution of 2 μm and an accuracy of 10 μm (Neill instruments).

[1] = Spectroscopic properties (absorbance, fluorescence); format: physicochemical; details: for Fluorescence in aqueous solution relative to ethanol: excited at 405 nm, indicates aggregation in water; for Molar extinction coefficient at the red peak: red absorption peak
[2] = tested on: Colo26 mouse colorectal tumour cells; assay: Uptake by Colo26 tumour cells in culture; format: cell-based; details: 1.5 μM; for 6 hour uptake (millions of molecules per cell) / 24 hour uptake (millions of molecules per cell) / Rate of uptake 6-24 h (thousands of molecules per cell per hour): Colo26 cells
Method: Colo26 mouse colorectal tumour cells were grown in culture using standard methods. […] At the end of the set time period, the culture medium containing the added photosensitiser was removed and the cells washed with cold phosphate buffered saline. The cells were freed from the culture flask by treatment with trypsin solution. The viable cell count was determined using a standard haemocytometer and the photosensitiser extracted from the cells by treatment with methanol:DMSO (4:1, v:v). Cell extracts were frozen in liquid nitrogen and stored at −70° C. for later analysis. The photosensitiser content of the cell extract was determined by direct fluorescence using standard curves of photosensitiser and correcting for extraction efficiency from the cell suspension. […] (millions of molecules per cell, m against time t (hours)). […] The uptake of m-THPC is rapid, reaching a peak around 24 hours after which the photosensitiser content of the cells declines. […] However, the amount of photosensitiser taken up is greater. […] The mechanism of photosensitiser uptake by cells remains a subject of study. In the case of small hydrophobic sensitisers such as m-THPC, which are generally presented to cells bound to protein or lipoprotein in biological systems, a role for specific lipoprotein receptors has been implicated. […] One way in which uptake mechanisms may be studied is by determining the influence of temperature. In general, active (energy-dependent) uptake processes are inhibited in cells maintained at 4° C. compared to those at 37° C. Passive (energy-independent) uptake processes are much less temperature-dependent.

[3] = Plasma and tissue photosensitiser concentrations in tumour-bearing mice
Method: Adult female Balb/c mice bearing the syngeneic colo26 tumour implanted subcutaneously were produced using methods previously described (Ansell et al. Lasers in Medical Science 1997, 12, 336-41). Groups of mice of weight 19-22 g were given the photosensitisers at a dose of 0.88 μmol kg^−1 (equivalent to 0.6 mg kg^−1 in the case of m-THPC) by injection into the tail vein. The solutions for injection of each compound were prepared at a concentration of 0.352 μmol ml^−1 so that a typical 20 g mouse would be injected with a volume of 50 μl.
Animals were sacrificed at 6, 24, 72 and 192 hours after injection of each photosensitiser. Immediately after sacrifice, blood was obtained by cardiac puncture, and centrifuged at 13,000×g for three minutes. The resulting supernatant (blood plasma) was aspirated and stored at −70° C. for subsequent analysis. The photosensitiser content of each sample was measured from the fluorescence of an extract obtained using methanol:DMSO (3:5, v:v). A 50 μl portion of each extract was transferred to a disposable fluorescence cuvette and the fluorescence determined using an excitation wavelength of 418 nm and emission wavelength of 650 nm with an eight second response setting. The assay was calibrated using stock solutions of each compound in methanol, further diluted in methanol:water (1:1, v/v) and extracted with methanol:DMSO as described above. […] The measurement protocol was designed to dilute each sample to a sufficient extent to avoid interference by endogenous chromophores (absorbance of samples <<0.1 at the excitation wavelength).
The selectivity for tumour specific tissue distribution was also evaluated in this work. Tissue selectivity was evaluated as the tumour:muscle concentration ratio over the duration of the observation period (4-192 hours post-administration). This ratio provided a direct measure of the normal tissue to tumour tissue differential in concentrations and allows selection of an optimal treatment time for PDT that minimises the potential to cause collateral damage of normal tissues.

tumour and muscle = details: cited from earlier work
[4] = tested on: syngeneic colo26 tumour implanted subcutaneously; details: 4.4 μmol kg^−1; drug-light interval 72 hours; light 652 nm; cited from earlier work
[5] = tested on: syngeneic colo26 tumour implanted subcutaneously; assay: Tumour PDT activity (tumour necrosis) in mouse implanted colorectal tumour model
Excerpt: Information on the tumour PDT activity have been obtained in the aforementioned mouse model bearing the syngeneic colo26 tumour implanted subcutaneously at the top of the left hind leg (approximately 1 cm lateral to the spine). The tumours were used after 12 to 16 days when they had reached an average diameter of 8 to 10 mm. For drug injection and irradiation animals were sedated with Hypnorm diluted in water (1:3).

Solubility in water = format: physicochemical
[6] = usual clinical dose of 0.15 mg kg^−1; cited from earlier work
[7] = 0.88 μmol kg^−1 i.v., 6-192 hours

| Compound | Differences in ear thickness (irradiated-control), Mean (Balb/c mice; 24 h drug-light interval) | Differences in ear thickness (irradiated-control), Mean (Balb/c mice; 72 h drug-light interval) | Fluorescence in aqueous solution relative to ethanol [1] | 6 hour uptake (millions of molecules per cell) ([2]; 4° C.) | 24 hour uptake (millions of molecules per cell) ([2]; 4° C.) | Rate of uptake 6-24 h (thousands of molecules per cell per hour) ([2]; 4° C.) | 6 hour uptake (millions of molecules per cell) ([2]; 37° C.) | 24 hour uptake (millions of molecules per cell) ([2]; 37° C.) | Rate of uptake 6-24 h (thousands of molecules per cell per hour) ([2]; 37° C.) | Molar extinction coefficient at the red peak [1] | other results |
| --- | --- | --- | --- | --- | --- | --- | --- | --- | --- | --- | --- |
| tetrakis (ω-methoxypolyethylene glycol [MW=2000] triazine of 7,8-dihydro-5,10,15,20-tetrakis(3-hydroxyphenyl)porphyrin [SPC 0038B] | 25 μm | 4 μm | 47% | 0.56 millions of molecules per cell | 0.64 millions of molecules per cell | 4 thousands of molecules per cel | 0.82 millions of molecules per cell | 0.86 millions of molecules per cell | 2 thousands of molecules per cel |  | Uptake in the cold compared with 37° C. ([2]; 4° C. versus 37° C.): twice as great in the cold than at 37 °C; Cell photosensitiser content, factor less than that of m-THPC ([2]; after 72 hours incubation, 37° C.): ~100; Excretion from the liver ([3]; mouse, in vivo): more slowly than m-THPC; Time for which tumour retained maximum sensitivity to light (tumour and muscle; after drug administration, mouse model): at least 15 days; Time of peak concentration in muscle (tumour and muscle; after injection): ≤ 72 h; Muscle photosensitivity (tumour and muscle; three days after administration, mouse model): no longer photosensitive; PDT treatment times with sustained PDT tumour necrosis (tumour and muscle; tumour bioactivity): 4 to 15 days; Biological effect (mm of tumour necrosis) [4]: 3.3 ± 0.7 ^1 mm; Fold less potency in comparison to SPC 0172 and m-THPC ([5]; optimal drug-light interval of 72 hours, dose level and degree of tumour necrosis basis): 10-20 fold |
| Oc1cccc(-c2c3nc(c(-c4cccc(O)c4)c4ccc([nH]4)c(-c4cccc(O)c4)c4nc(c(-c5cccc(O)c5)c5ccc2[nH]5)CC4)C=C3)c1 [m-THPC, 7,8-dihydro-5,10,15,20-tetrakis(3-hydroxyphenyl)porphyrin] | 41 μm | 2 μm | severely quenched | 0.82 millions of molecules per cell | 1.33 millions of molecules per cell | 28 thousands of molecules per cel | 79.2 millions of molecules per cell | 208 millions of molecules per cell | 7184 thousands of molecules per cel | ~30,000 L mol^−1 cm^−1 | Inhibition of uptake at 4° C., factor ([2]; 4° C. versus 37° C.): over 250; Time of peak uptake by tumour cells ([2]; 37° C.): around 24 hours; Solubility in water (Solubility in water; water): insoluble; Solubility in water (Solubility in water; water / aqueous solvents): insoluble in aqueous solvents; Duration of skin sensitivity [6]: 2-3 weeks |
| tetrakis (6′-(methoxy PEG 2000 carbamate)1′-isocyanate hexamethylene) derivative of 7,8dihydro-5,10,15,20-tetrakis(3-hydroxyphenyl)porphyrin [SPC 0172] | 2 μm | 0 μm | 36% | 1.08 millions of molecules per cell | 1.78 millions of molecules per cell | 39 thousands of molecules per cel | 1.12 millions of molecules per cell | 2.08 millions of molecules per cell | 53 thousands of molecules per cel | ~22,000 L mol^−1 cm^−1 | Uptake on cooling as share of that at 37° C. ([2]; 4° C. versus 37° C.): about 75%; Cell photosensitiser content, times as much as SPC 0038B ([2]; after 72 hours of incubation, 37° C.): about 5; Liver photosensitiser levels [3, 7]: lower and eliminated more quickly; Plasma concentration-time profile [3, 7]: lower absolute levels and more rapid elimination; Skin photosensitiser concentrations [3, 7]: low throughout the 6-192 hour measurement period; Tumour:muscle concentration ratio ([3]; 72 hours post-administration, 0.88 μmol kg^−1 i.v.): about 7.5; Time of optimal tumour:muscle concentration ratio ([3]; post-administration, 0.88 μmol kg^−1 i.v.): 72 h; PDT activity compared with m-THPC ([5]; Balb/c mice bearing colo26): same PDT activity as m-THPC; Time of maximum photodynamic effect in tumour ([5]; Balb/c mice bearing colo26): 2 days; Damage of surrounding skin and underlying muscle at treated sites ([5]; particularly at the two day drug-light interval): only limited damage of the surrounding skin and underlying muscle; Tumour damage at a range of drug-light intervals ([5]; same dose (1.76 μmol kg^−1), light dose 20 J cm^−2, all drug-light intervals up to 72 hours): Full thickness tumour damage |
